Test results taken from PMC8700061, “Fragment-Sized and Bidentate (Immuno)Proteasome Inhibitors Derived from Cysteine and Threonine Targeting Warheads” (Cells, 2021).

Legend:
β1i subunit of human iCP = molecular target: T1, β1i subunit of human iCP (Homo sapiens, UniProt P28065+P40306); experiment: Inhibition of β1i activity (RA, IC50), Ac-PAL-AMC; assay type: biochemical; conditions: PA28α; for IC50: 30 min pre-incubation; for remaining activity at 10 µM: Table 3, read-out: β1i residual activity at 10 µM
T1 construct: purchased Boston Biochem, Inc., Cambridge, MA, USA
Protocol: (§1) Residual activity measurements were performed at 10 μM final concentrations in the assay buffer (0.01% SDS, 50 mM Tris-HCl, 0.5 mM EDTA, pH 7.4). Stock solutions of the compounds were prepared in DMSO. To 50 μL of each compound in buffer, 25 μL of 0.8 nM human iCP or human cCP (both from Boston Biochem, Inc., Cambridge, MA, USA) were added. After incubation at 37 °C for 30 min, the reaction was started by adding of 25 μL of 100 μM relevant fluorogenic substrate: acetyl-Nle-Pro-Nle-Asp-AMC (Ac-nLPnLD-AMC, (Bachem, Bubendorf, Switzerland)) for β1, acetyl-Pro-Ala-Leu-7-amino-4-methylcoumarin (Ac-PAL-AMC, (Boston Biochem, Inc., Cambridge, MA, USA)) for β1i, t-butyloxycarbonyl-Leu-Arg-Arg-7-amino-4-methylcoumarin (Boc-LRR-AMC, (Bachem, Bubendorf, Switzerland)) for β2 and β2i, succinyl-Leu-Leu-Val-Tyr-7-amino-4-methylcoumarin (Suc-LLVY-AMC) (Bachem, Bubendorf, Switzerland) for β5 and β5i. Reaction progress was recorded on BioTek Synergy HT microplate reader by monitoring fluorescence at 460 nm (λex = 360 nm) for 90 min at 37 °C. The initial linear ranges were used to calculate velocity and determine residual activity. In the case of evaluation of β1, βi, β2, and β2i activities, the assay buffer was modified by replacing SDS with the proteasomal activator PA28α (Boston Biochem, Inc., Cambridge, MA, USA).
(§2) Final assay mixtures contained 0.2 nM human iCP or 0.2 nM human cCP in assay buffer (0.01% SDS (or PA28α in cases of β1, β1i subunits), 50 mM Tris-HCl, 0.5 mM EDTA, pH 7.4). Inhibitors were dissolved in DMSO and added to the black 96-well plates for at least eight different concentrations (the final concentration of DMSO was not more than 1%). After 30 min of incubation at 37 °C, the reaction was started by adding the substrate Suc-LLVY-AMC (for β5 and β5i) or Ac-nLPnLD-AMC (for β1) or Ac-PAL-AMC (for β1i). Fluorescence was monitored at 460 nm (λex = 360 nm) for 90 min at 37 °C. The progress of the reactions was recorded and the initial linear ranges were used to calculate the velocity. IC50 values were calculated using GraphPadPrism (GraphPad Software, San Diego, CA, USA) and are means from at least three independent determinations.

β1 subunit of human cCP = molecular target: T2, β1 subunit of human cCP (Homo sapiens, UniProt P28072+Q99436); experiment: Inhibition of β1 activity (RA, IC50), Ac-nLPnLD-AMC; assay type: biochemical; conditions: PA28α; for IC50: 30 min pre-incubation
T2 construct: purchased Boston Biochem, Inc., Cambridge, MA, USA
Protocol: as §1, §2

hMAO-A = molecular target: T3, hMAO-A (Homo sapiens, UniProt P21397); experiment: Monoamine oxidase assay, hMAO-A; assay type: biochemical; conditions: 30 min pre-incubation, read-out: Residual activity [%] ± SD, hMAO-A
T3 construct: purchased Sigma Aldrich; host or cells: BTI-TN-5B1-4 insect cells
T3 sequence (P21397 1-527): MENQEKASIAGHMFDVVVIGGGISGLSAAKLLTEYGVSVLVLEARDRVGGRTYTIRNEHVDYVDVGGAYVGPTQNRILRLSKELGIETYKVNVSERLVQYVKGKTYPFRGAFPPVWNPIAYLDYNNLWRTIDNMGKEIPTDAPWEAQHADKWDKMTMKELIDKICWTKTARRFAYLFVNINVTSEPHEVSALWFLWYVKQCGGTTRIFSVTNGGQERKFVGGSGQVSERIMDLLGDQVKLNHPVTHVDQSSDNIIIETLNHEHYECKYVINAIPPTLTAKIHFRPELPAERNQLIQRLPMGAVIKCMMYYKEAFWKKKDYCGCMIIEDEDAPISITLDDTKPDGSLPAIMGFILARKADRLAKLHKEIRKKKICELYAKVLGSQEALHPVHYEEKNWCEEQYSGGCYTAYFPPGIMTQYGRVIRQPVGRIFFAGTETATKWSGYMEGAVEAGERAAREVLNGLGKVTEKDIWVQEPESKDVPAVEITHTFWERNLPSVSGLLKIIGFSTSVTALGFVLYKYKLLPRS
Protocol: The effects of the test compounds on hMAO were investigated using fluorimetric assay. Recombinant hMAO-A and hMAO-B, expressed in BTI-TN-5B1-4 insect cells, horseradish peroxidase type II and p-tyramine hydrochloride were purchased from Sigma Aldrich. Amplex Red was synthesized as previously described.
Briefly, 50 mM sodium phosphate buffer (pH = 7.4, 0.05 vol.% Triton X-114) containing the compounds or the reference inhibitors and hMAO were incubated at 37 °C for 30 min. The reaction was started by adding Amplex Red (final concentration, 250 µM), horseradish peroxidase (final activity, 1 U/mL), and p-tyramine (final concentration, 1 mM). The increase in fluorescence (λex = 530 nm, λem = 590 nm) was monitored for 30 min at 37 °C. DMSO at a concentration of 1.5% (v/v) was used for the control experiments. For the determination of blank (b), the enzyme was replaced by phosphate-buffered solution. Each measurement was performed in duplicate. Inhibitory potencies were expressed as residual activities (RA), as described under the Cholinesterase assay section.

[1] = UV-Vis-based stability assay in buffer; assay type: physicochemical; conditions: for Stability in Buffer (UV-Vis-based assay): after 1 h, assay buffer pH 7.4, 37 °C, 50 µM; for Stability in buffer solutions: assay buffer / PBS pH 7.4
Protocol: The aqueous stability of all compounds was determined spectrophotometrically by following the changes in the absorption spectra of the compounds. The buffer solution (50 mM Tris-HCl, 0.5 mM EDTA, pH 7.4) was pre-incubated at 37 °C. Aliquots of the compounds studied (1 mM in DMSO) were transferred to a 96-well flat-bottom UV-transparent microplate (Corning, CLS3635, Corning Inc, Corning, NY, USA) containing the buffer solution to obtain a 50 μM solution containing 5% DMSO (final volume, 300 μL). The plate was incubated without lid at 37 °C in a plate reader (Synergy H4, BioTek Instruments, Inc., Santa Clara, CA, USA) and the absorbance spectrum (244–400 nm) was acquired in sweep mode after 0, 15, 30, 60, 120, 180, and 240 min using a discontinuous kinetic procedure in Gen5 software (BioTek Instruments, Inc., Santa Clara, CA, USA). The time required to read the entire plate was 3 min. To determine the baseline, the compound solution was replaced with pure DMSO and subtracted from each reading. Compounds with an absorbance maximum of less than 0.20 AU were not evaluated using these assays due to the high experimental error. For other compounds, the relative absorbance difference between the first time point and 60 min at the most responsive wavelength was calculated. If the relative absorbance difference for the compound in the buffer was below 0.1, between 0.1–0.2, and above 0.2, the compound was classified as stable, intermediate, and unstable, respectively.

SMILES	IC50 (β1i subunit of human iCP) [µM]	IC50 (β1 subunit of human cCP) [µM]	remaining activity at 100 µM (hMAO-A) [%]	Stability in Buffer (UV-Vis-based assay) [1]	Stability in buffer solutions [1]	remaining activity at 10 µM (β1i subunit of human iCP) [%]	remaining activity at 10 µM (β1 subunit of human cCP; 10 µM, Table 3) [%]	β1 (RA [%]) (β1 subunit of human cCP; 10 µM, Table 3) [%]
CC(C)C[C@H](NC(=O)Cc1ccc2oc(C#N)nc2c1)B1O[C@@H]2C[C@@H]3C[C@@H](C3(C)C)[C@]2(C)O1 [Compound 39]	1.3	2.9 ± 0.4	42	stable ^b,c (relative absorbance difference for the compound in the buffer was below 0.1)	stable	–	–	–
CC(=O)Oc1cccc2oc(C#N)nc12 [Compound 14]	–	–	34	stable ^c (relative absorbance difference for the compound in the buffer was below 0.1)	–	> 90	> 90	–
N#Cc1nc2c(O)cccc2o1 [Compound 10]	–	–	38 ± 2	stable ^c (relative absorbance difference for the compound in the buffer was below 0.1)	–	> 90	> 90	–
CC(=O)Oc1ccc2oc(C#N)nc2c1 [Compound 15]	–	–	16	stable ^c (relative absorbance difference for the compound in the buffer was below 0.1)	–	> 90	> 90	–
N#Cc1nc2cccc(O)c2o1 [Compound 13]	–	–	48 ± 1	stable ^c (relative absorbance difference for the compound in the buffer was below 0.1)	–	> 90	76	–
COc1cccc2oc(C#N)nc12 [Compound 6]	78	–	27	stable ^c,d (relative absorbance difference for the compound in the buffer was below 0.1)	–	–	–	82
CC(C)C[C@H](NC(=O)CCn1c(C#N)nc2ccccc21)B1O[C@@H]2C[C@@H]3C[C@@H](C3(C)C)[C@]2(C)O1 [Compound 30]	1.2 ± 0.1	0.4	> 50	stable ^b,c (relative absorbance difference for the compound in the buffer was below 0.1)	–	–	–	–
CC(C)C[C@H](NC(=O)CCCn1c(C#N)nc2ccccc21)B1O[C@@H]2C[C@@H]3C[C@@H](C3(C)C)[C@]2(C)O1 [Compound 31]	6 ± 3.2	8.4 ± 1.6	24	stable ^b,c (relative absorbance difference for the compound in the buffer was below 0.1)	–	–	–	–
N#Cc1nc2cc(O)ccc2o1 [Compound 11]	–	–	26	stable ^c (relative absorbance difference for the compound in the buffer was below 0.1)	–	> 90	> 90	–
CC(C)C[C@H](NC(=O)CCn1c(C#N)nc2ccccc21)B(O)O [Compound 34]	2.8 ± 0.5	3.2 ± 0.2	> 50	–	–	–	–	–
CC(C)C[C@H](NC(=O)CCCn1c(C#N)nc2ccccc21)B(O)O [Compound 35]	9.4 ± 1.9	13 ± 2	> 50	stable ^b (relative absorbance difference for the compound in the buffer was below 0.1)	–	–	–	–
CC(C)C[C@H](NC(=O)CCn1c(C#N)nc2cccc(Cl)c21)B1O[C@@H]2C[C@@H]3C[C@@H](C3(C)C)[C@]2(C)O1 [Compound 38]	1.9	5 ± 0.1	24 ± 1	stable ^b,c (relative absorbance difference for the compound in the buffer was below 0.1)	–	–	–	–
C=Cc1nc(CC(=O)N[C@@H](CC(C)C)B2O[C@@H]3C[C@@H]4C[C@@H](C4(C)C)[C@]3(C)O2)cs1 [Compound 28]	2.2 ± 0.1	4.8 ± 0.2	42	–	–	–	–	–
CC(C)C[C@H](NC(=O)Cc1ccc2oc(C#N)nc2c1)B(O)O [Compound 40]	2.1 ± 0.1	3.7 ± 0.9	36	stable ^b (relative absorbance difference for the compound in the buffer was below 0.1)	stable	–	–	–
